This passage reports EC50 and IC50 results from ChEMBL document CHEMBL1201862, “PubChem BioAssay data set” (2004).

Structures are written as SMILES. Calls of active or inactive are those of the source.

One experiment relates to Streptococcus. In words: GAS UMAA2166 growth inhibition – luminescence, BacTiterGlo, counter-screen for streptokinase expression inhibitor project, dose response (AID 1915).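 Also: potency for reduction of bacterial viability or growth.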 The experiment is classed as functional, organism-based. In general terms: The purpose of a counterscreen is to sort out artefacts and off-target activity.
Experiment [1] concerns Streptococcus sp. 'group A'. In words: Streptococcus pyogenes SK(-)GAS viability under kanamycin – luminescence, BacTiterGlo, confirmation, counter-screen for streptokinase expression inhibitor project, dose response (AID 1900). The experiment is classed as functional, organism-based.
In experiment [2] the target is T1, Dual specificity protein phosphatase 3 (Homo sapiens, UniProt P51452). In words: VHR1 phosphatase inhibitors, primary screen, biochemical, absorbance, uHTS (AID 1654).
Experiment [3] has as its target T1, Dual specificity protein phosphatase 3. In words: VHR1 phosphatase inhibitors, biochemical (AID 1878).
Another experiment has as its target T2, Streptokinase A (Streptococcus pyogenes serotype M1, UniProt P10520).
T2 sequence (P10520 whole entry): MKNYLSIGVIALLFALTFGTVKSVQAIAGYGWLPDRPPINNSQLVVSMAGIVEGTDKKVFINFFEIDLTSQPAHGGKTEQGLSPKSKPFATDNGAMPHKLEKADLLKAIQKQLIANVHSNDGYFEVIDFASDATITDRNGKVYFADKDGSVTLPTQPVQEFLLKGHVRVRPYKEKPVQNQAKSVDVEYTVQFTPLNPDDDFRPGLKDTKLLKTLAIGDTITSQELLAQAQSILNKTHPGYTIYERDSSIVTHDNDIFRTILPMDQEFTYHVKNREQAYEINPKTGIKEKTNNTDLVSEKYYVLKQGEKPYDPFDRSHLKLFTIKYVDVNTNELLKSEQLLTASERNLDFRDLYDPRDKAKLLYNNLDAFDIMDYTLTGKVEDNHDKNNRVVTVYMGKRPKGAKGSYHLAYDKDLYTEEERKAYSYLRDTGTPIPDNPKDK
In words: viability-normalized secreted streptokinase activity reduction – plasminogen activation absorbance, OD405, dose response (AID 1914).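 Also: secreted streptokinase activity via plasminogen activation per viability signal from cell pellet.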 In kind it is functional, Streptococcus pyogenes M1 GAS.

In another experiment the target is Genome polyprotein (dengue virus type 2, UniProt P29990). Description: flavivirus cap methylation enzyme inhibition – biochemical, confirmation dose response, primary screen (AID 588689). In kind it is functional.
In experiment [4] the target is T3, Small ubiquitin-related modifier 1 (Homo sapiens, UniProt P63165). In words: SUMO1 protein interaction blockers, potency – biochemical, fluorescence polarization, uHTS hits, dose response (AID 624382). In kind it is functional. To be noted: read-out: IC50_Mean. In general terms: Polarisation of emitted light reports the rotation of a fluorescent probe.
Experiment [5] has as its target T4, Small ubiquitin-related modifier 2 (Homo sapiens, UniProt P61956). Description: SUMO2 binding disruption by SUMO1 hits – biochemical, FRET, human SUMO2, uHTS hits, selectivity assay for SUMO1 interaction inhibitor project, dose response (AID 624384). The experiment is classed as functional. To be noted: read-out: IC50_Mean.
For experiment [6], the target named is T3, Small ubiquitin-related modifier 1. Description: SUMO1 protein-protein binding blockers, potency – biochemical, FRET, dose response (AID 624383). The experiment is classed as functional. The following applies: read-out: IC50_Mean.
The target of experiment [7] is T5, Calpain-2 catalytic subunit (Sus scrofa, UniProt P43367).
T5 sequence (P43367 whole entry): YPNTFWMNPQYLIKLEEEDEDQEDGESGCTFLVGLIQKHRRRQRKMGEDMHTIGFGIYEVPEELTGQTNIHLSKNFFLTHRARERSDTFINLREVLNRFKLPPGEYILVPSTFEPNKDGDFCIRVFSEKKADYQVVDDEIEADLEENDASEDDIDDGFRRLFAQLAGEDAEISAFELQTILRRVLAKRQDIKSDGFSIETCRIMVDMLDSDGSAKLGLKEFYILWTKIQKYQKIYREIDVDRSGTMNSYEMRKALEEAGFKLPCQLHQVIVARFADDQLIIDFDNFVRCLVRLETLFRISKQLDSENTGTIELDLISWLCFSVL
Description: m-calpain protease blockers, concentration series – biochemical, fluorogenic peptide substrate, dose response (AID 1420). In kind it is functional.

Experiment [8] addresses T6, Dual specificity protein phosphatase 6 (Rattus norvegicus, UniProt Q64346).
T6 sequence (Q64346 whole entry): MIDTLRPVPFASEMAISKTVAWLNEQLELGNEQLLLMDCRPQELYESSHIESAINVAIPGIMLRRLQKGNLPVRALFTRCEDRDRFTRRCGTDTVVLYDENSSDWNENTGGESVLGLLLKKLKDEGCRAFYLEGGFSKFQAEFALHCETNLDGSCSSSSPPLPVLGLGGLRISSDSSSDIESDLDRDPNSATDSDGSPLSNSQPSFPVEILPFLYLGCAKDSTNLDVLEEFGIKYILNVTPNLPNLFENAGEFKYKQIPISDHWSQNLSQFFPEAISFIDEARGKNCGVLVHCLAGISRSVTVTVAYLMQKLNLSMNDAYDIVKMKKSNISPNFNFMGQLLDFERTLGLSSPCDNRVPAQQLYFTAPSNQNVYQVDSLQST
In words: inhibition of rat DUSP6 enzyme activity – biochemical, in vitro, primary screen (AID 425).

For experiment [9], the target named is T4, Small ubiquitin-related modifier 2. In words: disruption of SUMO2 interaction with SIM peptide – biochemical, fluorescence polarization, uHTS hits, selectivity assay for SUMO1 interaction inhibitor project, dose response (AID 624385). In kind it is functional. To be noted: read-out: IC50_Mean.

T4 sequence (P61956 whole entry): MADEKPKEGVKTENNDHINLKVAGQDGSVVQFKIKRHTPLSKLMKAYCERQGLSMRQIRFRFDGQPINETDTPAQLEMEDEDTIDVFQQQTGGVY
T3 sequence (P63165 whole entry): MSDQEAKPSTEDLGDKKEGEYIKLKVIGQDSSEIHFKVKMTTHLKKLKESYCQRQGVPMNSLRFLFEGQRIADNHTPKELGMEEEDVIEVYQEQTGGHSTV
T1 sequence (P51452 whole entry): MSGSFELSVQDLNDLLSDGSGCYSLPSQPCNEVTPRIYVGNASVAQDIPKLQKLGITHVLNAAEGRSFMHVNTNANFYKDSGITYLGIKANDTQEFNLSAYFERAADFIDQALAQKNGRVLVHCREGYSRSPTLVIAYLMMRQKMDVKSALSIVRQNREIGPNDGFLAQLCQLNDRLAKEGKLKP
Genome polyprotein, sequence (P29990 2492-3391 limits assumed): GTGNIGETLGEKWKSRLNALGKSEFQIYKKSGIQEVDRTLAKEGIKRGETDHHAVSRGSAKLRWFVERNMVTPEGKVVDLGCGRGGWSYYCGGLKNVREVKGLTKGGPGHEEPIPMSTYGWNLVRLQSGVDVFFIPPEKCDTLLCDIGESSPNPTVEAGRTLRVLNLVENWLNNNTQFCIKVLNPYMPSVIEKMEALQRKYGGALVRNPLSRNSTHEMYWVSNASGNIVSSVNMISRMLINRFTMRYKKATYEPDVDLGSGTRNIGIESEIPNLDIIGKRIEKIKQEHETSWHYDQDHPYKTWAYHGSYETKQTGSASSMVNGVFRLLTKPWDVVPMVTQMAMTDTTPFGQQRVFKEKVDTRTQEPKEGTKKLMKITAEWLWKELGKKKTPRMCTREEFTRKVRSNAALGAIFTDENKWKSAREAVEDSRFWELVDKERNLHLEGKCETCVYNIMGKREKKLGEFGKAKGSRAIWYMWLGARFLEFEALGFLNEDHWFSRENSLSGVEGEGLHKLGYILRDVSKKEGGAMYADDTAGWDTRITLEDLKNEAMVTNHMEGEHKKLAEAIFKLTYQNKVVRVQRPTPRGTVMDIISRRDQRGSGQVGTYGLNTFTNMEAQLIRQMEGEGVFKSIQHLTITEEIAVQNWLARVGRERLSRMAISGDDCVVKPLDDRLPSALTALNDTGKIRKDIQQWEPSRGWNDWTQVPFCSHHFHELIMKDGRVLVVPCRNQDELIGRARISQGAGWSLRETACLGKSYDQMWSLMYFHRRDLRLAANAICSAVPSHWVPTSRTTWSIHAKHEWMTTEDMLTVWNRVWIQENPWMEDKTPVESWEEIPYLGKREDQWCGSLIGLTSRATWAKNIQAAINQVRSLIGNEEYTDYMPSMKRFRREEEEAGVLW

For `CSc1nc(SCC(=O)O)c2sc3nc(-c4ccccc4)c4c(c3c2n1)CCC4`, the values for the concentration for a half-maximal effect (EC50) (in the experiment with Streptococcus; in [1]; on Streptokinase A) were 6.54 µM (active), 1.41 µM (active) and 7.33 µM (active), respectively. The IC50 in experiment [2] is 5.06 µM (active); in [3] it was 3.72 µM (active); on Genome polyprotein, 48.9 µM (active); in [4], 2.06 µM (active); in experiment [5], 5.26 µM (active); in experiment [6] it was 5.16 µM (active). The IC50 is 3.74 µM (not active) in experiment [7], 96.5 µM (active) in [8] and 5.38 µM (active) in experiment [9].

A word on the EC50: it is the concentration at which the effect is half-maximal.
